Assay results from the supplement of paper PMC10307832.

Legend:
Experiment in all cases: relative viability (nuclei count vs DMSO), 5 days (fraction); higher = more cells survive
201T = test system: 201T
Summary of the method: (§1)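 Lung cancer cell lines, seeded in 1536-well plates, were treated the following day by pin tool with a single drug or with five library-drug doses (not always all listed) in √10 steps on top of a fixed anchor-drug dose. Cells were fixed and nuclei stained in one step after 5 days, and nuclei were counted. Relative viability is the nuclei count for treated wells divided by that for vehicle wells, reported as medians of duplicate plates.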

A-427 = test system: A-427
Summary of the method: as §1

COR-L 105 = test system: COR-L 105
Summary of the method: as §1

COR-L23 = test system: COR-L23
Summary of the method: as §1

EKVX = test system: EKVX
Summary of the method: as §1

HARA = test system: HARA
Summary of the method: as §1

HCC-15 = test system: HCC-15
Summary of the method: as §1

HCC-44 = test system: HCC-44
Summary of the method: as §1

HCC-827 = test system: HCC-827
Summary of the method: as §1

LCLC-103H = test system: LCLC-103H
Summary of the method: as §1

LK-2 = test system: LK-2
Summary of the method: as §1

NCI-H1437 = test system: NCI-H1437
Summary of the method: as §1

NCI-H1666 = test system: NCI-H1666
Summary of the method: as §1

NCI-H1792 = test system: NCI-H1792
Summary of the method: as §1

NCI-H1975 = test system: NCI-H1975
Summary of the method: as §1

NCI-H23 = test system: NCI-H23
Summary of the method: as §1

NCI-H441 = test system: NCI-H441
Summary of the method: as §1

NCI-H520 = test system: NCI-H520
Summary of the method: as §1

NCI-H596 = test system: NCI-H596
Summary of the method: as §1

NCI-H650 = test system: NCI-H650
Summary of the method: as §1

NCI-H838 = test system: NCI-H838
Summary of the method: as §1

SK-MES-1 = test system: SK-MES-1
Summary of the method: as §1

Q: Which results are given for Clc1ccc(Nc2nnc(Cc3ccncc3)c3ccccc23)cc1 [Vatalanib] + Cc1nc(NC(=O)N2CCC[C@H]2C(N)=O)sc1-c1ccnc(C(C)(C)C(F)(F)F)c1 [Alpelisib] (partner 2 µM)?
A: relative viability (201T; first compound 0.04 µM): 0.984; relative viability (201T; first compound 0.1265 µM): 1.03; relative viability (201T; first compound 0.4 µM): 1.04; relative viability (201T; first compound 1.265 µM): 1.03; relative viability (201T; first compound 4 µM): 1.07; relative viability (A-427; first compound 0.04 µM): 0.988; relative viability (A-427; first compound 0.1265 µM): 1.06; relative viability (A-427; first compound 0.4 µM): 1.13; relative viability (A-427; first compound 1.265 µM): 1.11; relative viability (A-427; first compound 4 µM): 1.08; relative viability (COR-L 105; first compound 0.04 µM): 0.994; relative viability (COR-L 105; first compound 0.1265 µM): 0.994; relative viability (COR-L 105; first compound 0.4 µM): 1.15; relative viability (COR-L 105; first compound 1.265 µM): 1.12; relative viability (COR-L 105; first compound 4 µM): 1.04; relative viability (COR-L23; first compound 0.04 µM): 0.769; relative viability (COR-L23; first compound 0.1265 µM): 0.75; relative viability (COR-L23; first compound 0.4 µM): 1.07; relative viability (COR-L23; first compound 1.265 µM): 0.665; relative viability (COR-L23; first compound 4 µM): 0.739; relative viability (EKVX; first compound 0.04 µM): 0.939; relative viability (EKVX; first compound 0.1265 µM): 0.821; relative viability (EKVX; first compound 0.4 µM): 0.824; relative viability (EKVX; first compound 1.265 µM): 0.829; relative viability (EKVX; first compound 4 µM): 0.785; relative viability (HARA; first compound 0.04 µM): 0.738; relative viability (HARA; first compound 0.1265 µM): 0.869; relative viability (HARA; first compound 0.4 µM): 0.761; relative viability (HARA; first compound 1.265 µM): 0.831; relative viability (HARA; first compound 4 µM): 0.808; relative viability (HCC-15; first compound 0.04 µM): 0.893; relative viability (HCC-15; first compound 0.1265 µM): 0.884; relative viability (HCC-15; first compound 0.4 µM): 0.918; relative viability (HCC-15; first compound 1.265 µM): 0.916; relative viability (HCC-15; first compound 4 µM): 0.937; relative viability (HCC-44; first compound 0.04 µM): 0.803; relative viability (HCC-44; first compound 0.1265 µM): 0.815; relative viability (HCC-44; first compound 0.4 µM): 0.777; relative viability (HCC-44; first compound 1.265 µM): 0.81; relative viability (HCC-44; first compound 4 µM): 0.745; relative viability (HCC-827; first compound 0.04 µM): 0.991; relative viability (HCC-827; first compound 0.1265 µM): 1.01; relative viability (HCC-827; first compound 0.4 µM): 0.828; relative viability (HCC-827; first compound 1.265 µM): 1; relative viability (HCC-827; first compound 4 µM): 0.786; relative viability (LCLC-103H; first compound 0.04 µM): 0.987; relative viability (LCLC-103H; first compound 0.1265 µM): 0.923; relative viability (LCLC-103H; first compound 0.4 µM): 1.02; relative viability (LCLC-103H; first compound 1.265 µM): 0.954; relative viability (LCLC-103H; first compound 4 µM): 0.96; relative viability (LK-2; first compound 0.04 µM): 0.951; relative viability (LK-2; first compound 0.1265 µM): 0.999; relative viability (LK-2; first compound 1.265 µM): 1.07; relative viability (LK-2; first compound 4 µM): 1.24; relative viability (NCI-H1437; first compound 0.04 µM): 0.975; relative viability (NCI-H1437; first compound 0.1265 µM): 1; relative viability (NCI-H1437; first compound 0.4 µM): 0.997; relative viability (NCI-H1437; first compound 1.265 µM): 1.04; relative viability (NCI-H1437; first compound 4 µM): 0.991; relative viability (NCI-H1666; first compound 0.04 µM): 1.23; relative viability (NCI-H1666; first compound 0.1265 µM): 0.934; relative viability (NCI-H1666; first compound 0.4 µM): 0.978; relative viability (NCI-H1666; first compound 1.265 µM): 0.996; relative viability (NCI-H1666; first compound 4 µM): 0.941; relative viability (NCI-H1792; first compound 0.04 µM): 0.669; relative viability (NCI-H1792; first compound 0.1265 µM): 0.741; relative viability (NCI-H1792; first compound 0.4 µM): 0.639; relative viability (NCI-H1792; first compound 1.265 µM): 0.677; relative viability (NCI-H1792; first compound 4 µM): 0.73; relative viability (NCI-H1975; first compound 0.04 µM): 0.618; relative viability (NCI-H1975; first compound 0.1265 µM): 0.62; relative viability (NCI-H1975; first compound 0.4 µM): 0.627; relative viability (NCI-H1975; first compound 1.265 µM): 0.553; relative viability (NCI-H1975; first compound 4 µM): 0.519; relative viability (NCI-H23; first compound 0.04 µM): 0.649; relative viability (NCI-H23; first compound 0.1265 µM): 0.672; relative viability (NCI-H23; first compound 0.4 µM): 0.78; relative viability (NCI-H23; first compound 1.265 µM): 0.775; relative viability (NCI-H23; first compound 4 µM): 0.75; relative viability (NCI-H441; first compound 0.04 µM): 0.808; relative viability (NCI-H441; first compound 0.1265 µM): 0.627; relative viability (NCI-H441; first compound 0.4 µM): 0.733; relative viability (NCI-H441; first compound 1.265 µM): 0.836; relative viability (NCI-H441; first compound 4 µM): 0.859; relative viability (NCI-H520; first compound 0.04 µM): 0.848; relative viability (NCI-H520; first compound 0.1265 µM): 0.895; relative viability (NCI-H520; first compound 0.4 µM): 0.912; relative viability (NCI-H520; first compound 1.265 µM): 0.855; relative viability (NCI-H520; first compound 4 µM): 0.852; relative viability (NCI-H596; first compound 0.04 µM): 0.503; relative viability (NCI-H596; first compound 0.1265 µM): 0.499; relative viability (NCI-H596; first compound 0.4 µM): 0.498; relative viability (NCI-H596; first compound 1.265 µM): 0.53; relative viability (NCI-H596; first compound 4 µM): 0.511; relative viability (NCI-H650; first compound 0.04 µM): 1.24; relative viability (NCI-H650; first compound 0.1265 µM): 0.936; relative viability (NCI-H650; first compound 1.265 µM): 1.06; relative viability (NCI-H650; first compound 4 µM): 1.13; relative viability (NCI-H838; first compound 0.04 µM): 0.975; relative viability (NCI-H838; first compound 0.1265 µM): 1.07; relative viability (NCI-H838; first compound 0.4 µM): 1.06; relative viability (NCI-H838; first compound 1.265 µM): 0.864; relative viability (NCI-H838; first compound 4 µM): 0.985; relative viability (SK-MES-1; first compound 0.04 µM): 1.11; relative viability (SK-MES-1; first compound 0.1265 µM): 0.849; relative viability (SK-MES-1; first compound 0.4 µM): 0.912; relative viability (SK-MES-1; first compound 1.265 µM): 0.807; relative viability (SK-MES-1; first compound 4 µM): 0.868
